Assay results taken from US12492188B2, “1H-benzo[D]imidazole derivatives as TLR9 inhibitors for the treatment of fibrosis” (BRISTOL-MYERS SQUIBB COMPANY, priority 2020, dated 2025).
Read-outs that look alike come from different tables or passages of the source.

Legend:
Assay type in all cases: cell-based
[1] = target: T1, human TLR7 (Homo sapiens, UniProt Q9NYK1); experiment: TLR7 inhibition reporter assay (HEK-Blue cells, secreted embryonic alkaline phosphatase reporter); details: HEK-Blue cells overexpressing human TLR7, stimulated with gardiquimod 7.5 μM; read-out: TLR 7 IC50
T1 construct: host or cells: HEK-Blue cells (HEK293-derived reporter line)
T1 sequence (Q9NYK1 27-1049): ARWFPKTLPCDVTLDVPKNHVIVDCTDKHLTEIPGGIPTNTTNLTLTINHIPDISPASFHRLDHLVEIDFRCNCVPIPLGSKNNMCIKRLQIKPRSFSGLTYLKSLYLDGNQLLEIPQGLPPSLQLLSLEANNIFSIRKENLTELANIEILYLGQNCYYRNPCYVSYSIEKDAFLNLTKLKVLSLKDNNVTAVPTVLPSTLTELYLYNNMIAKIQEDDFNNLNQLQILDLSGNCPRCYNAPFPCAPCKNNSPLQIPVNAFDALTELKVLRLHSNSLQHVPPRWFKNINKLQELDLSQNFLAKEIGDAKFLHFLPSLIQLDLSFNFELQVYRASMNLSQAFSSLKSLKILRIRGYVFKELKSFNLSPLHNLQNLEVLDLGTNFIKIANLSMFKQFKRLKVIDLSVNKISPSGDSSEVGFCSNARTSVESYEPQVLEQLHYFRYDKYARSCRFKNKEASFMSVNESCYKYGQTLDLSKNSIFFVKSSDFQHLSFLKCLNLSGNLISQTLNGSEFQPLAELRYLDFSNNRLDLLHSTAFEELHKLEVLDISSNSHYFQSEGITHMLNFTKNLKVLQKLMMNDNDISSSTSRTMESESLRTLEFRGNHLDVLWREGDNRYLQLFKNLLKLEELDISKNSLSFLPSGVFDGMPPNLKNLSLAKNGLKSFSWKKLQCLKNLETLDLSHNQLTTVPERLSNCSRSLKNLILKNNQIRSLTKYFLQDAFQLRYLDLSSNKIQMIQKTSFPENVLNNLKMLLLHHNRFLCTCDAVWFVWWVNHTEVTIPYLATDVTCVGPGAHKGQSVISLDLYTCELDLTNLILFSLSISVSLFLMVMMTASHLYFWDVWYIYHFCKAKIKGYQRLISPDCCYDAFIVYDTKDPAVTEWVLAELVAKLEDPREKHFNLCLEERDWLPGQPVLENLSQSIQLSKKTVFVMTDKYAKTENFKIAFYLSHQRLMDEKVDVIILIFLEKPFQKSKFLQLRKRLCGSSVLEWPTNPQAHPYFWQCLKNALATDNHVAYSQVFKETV
Summary of the method: (§1)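 HEK-Blue cells expressing human TLR7, TLR8 or TLR9 with an NF-κB/AP-1-driven SEAP reporter were pretreated with compound (0.05 nM–50 μM final) for 30 min at room temperature. Agonists were gardiquimod 7.5 μM for TLR7, R848 15.9 μM for TLR8 and ODN2006 5 nM for TLR9. SEAP was read after 22 h at 37 °C, and inhibition was calculated relative to agonist-plus-DMSO and known-inhibitor controls.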

[2] = target: T2, human TLR8 (Homo sapiens, UniProt Q9NR97); experiment: TLR8 inhibition reporter assay (HEK-Blue cells, secreted embryonic alkaline phosphatase reporter); details: HEK-Blue cells overexpressing human TLR8, stimulated with R848 15.9 μM; read-out: TLR 8 IC50
T2 construct: host or cells: HEK-Blue cells (HEK293-derived reporter line)
T2 sequence (Q9NR97 27-1041): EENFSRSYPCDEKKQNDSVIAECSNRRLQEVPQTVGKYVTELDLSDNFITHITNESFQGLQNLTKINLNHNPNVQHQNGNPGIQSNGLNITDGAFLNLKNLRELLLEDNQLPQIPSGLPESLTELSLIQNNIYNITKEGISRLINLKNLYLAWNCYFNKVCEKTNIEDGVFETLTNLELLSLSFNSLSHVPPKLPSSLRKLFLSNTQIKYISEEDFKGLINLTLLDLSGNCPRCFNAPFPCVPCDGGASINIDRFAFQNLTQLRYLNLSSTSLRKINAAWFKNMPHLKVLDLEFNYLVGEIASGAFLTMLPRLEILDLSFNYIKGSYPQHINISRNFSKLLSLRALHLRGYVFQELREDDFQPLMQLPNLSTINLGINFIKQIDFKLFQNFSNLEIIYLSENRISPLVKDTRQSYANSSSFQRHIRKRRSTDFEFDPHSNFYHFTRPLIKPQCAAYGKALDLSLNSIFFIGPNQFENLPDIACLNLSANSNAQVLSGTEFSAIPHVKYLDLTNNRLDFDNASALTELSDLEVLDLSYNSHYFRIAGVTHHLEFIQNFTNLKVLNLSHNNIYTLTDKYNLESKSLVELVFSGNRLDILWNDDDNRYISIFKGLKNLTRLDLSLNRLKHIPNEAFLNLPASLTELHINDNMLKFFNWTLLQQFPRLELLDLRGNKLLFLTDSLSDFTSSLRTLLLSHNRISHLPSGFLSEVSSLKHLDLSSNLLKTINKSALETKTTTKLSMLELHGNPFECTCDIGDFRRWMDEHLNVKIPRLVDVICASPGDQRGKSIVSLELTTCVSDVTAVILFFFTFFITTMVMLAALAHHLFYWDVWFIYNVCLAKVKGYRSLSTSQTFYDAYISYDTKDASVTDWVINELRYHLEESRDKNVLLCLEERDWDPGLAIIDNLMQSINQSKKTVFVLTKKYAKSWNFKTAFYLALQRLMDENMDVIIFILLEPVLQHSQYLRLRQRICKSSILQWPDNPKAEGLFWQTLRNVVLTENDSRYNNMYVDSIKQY
Summary of the method: as §1

[3] = target: T3, human TLR9 (Homo sapiens, UniProt Q9NR96); experiment: TLR9 inhibition reporter assay (HEK-Blue cells, secreted embryonic alkaline phosphatase reporter); details: HEK-Blue cells overexpressing human TLR9, stimulated with ODN2006 5 nM
T3 construct: host or cells: HEK-Blue cells (HEK293-derived reporter line)
T3 sequence (Q9NR96 26-1032): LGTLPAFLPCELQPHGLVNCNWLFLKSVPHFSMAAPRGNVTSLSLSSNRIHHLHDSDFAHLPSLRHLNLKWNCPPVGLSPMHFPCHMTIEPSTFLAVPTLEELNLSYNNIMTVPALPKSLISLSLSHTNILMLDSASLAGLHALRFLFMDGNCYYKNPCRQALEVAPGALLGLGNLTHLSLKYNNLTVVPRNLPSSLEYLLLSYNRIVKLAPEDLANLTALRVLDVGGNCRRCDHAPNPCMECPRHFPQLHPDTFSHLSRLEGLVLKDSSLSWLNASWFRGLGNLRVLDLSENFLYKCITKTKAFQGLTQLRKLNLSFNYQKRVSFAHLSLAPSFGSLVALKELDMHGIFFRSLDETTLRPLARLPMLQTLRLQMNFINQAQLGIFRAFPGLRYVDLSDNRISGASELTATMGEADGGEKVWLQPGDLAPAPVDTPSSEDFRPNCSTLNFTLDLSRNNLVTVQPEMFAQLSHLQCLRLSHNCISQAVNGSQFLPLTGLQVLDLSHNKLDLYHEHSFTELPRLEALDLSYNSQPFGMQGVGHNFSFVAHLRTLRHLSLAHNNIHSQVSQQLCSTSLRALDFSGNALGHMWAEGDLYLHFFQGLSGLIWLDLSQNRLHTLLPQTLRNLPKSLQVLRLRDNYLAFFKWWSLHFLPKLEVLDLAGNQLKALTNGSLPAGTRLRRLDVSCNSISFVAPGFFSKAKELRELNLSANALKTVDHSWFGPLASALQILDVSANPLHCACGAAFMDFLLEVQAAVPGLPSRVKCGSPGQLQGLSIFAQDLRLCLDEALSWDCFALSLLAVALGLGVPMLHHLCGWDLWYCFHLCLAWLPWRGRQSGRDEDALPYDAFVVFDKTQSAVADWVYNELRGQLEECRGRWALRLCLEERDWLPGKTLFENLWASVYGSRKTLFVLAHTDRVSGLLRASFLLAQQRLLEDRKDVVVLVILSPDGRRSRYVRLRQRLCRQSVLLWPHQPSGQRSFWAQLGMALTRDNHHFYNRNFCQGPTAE
Summary of the method: as §1

[4] = 22 hour incubation, reporter readout

Row | Compound | IC50 [1] | IC50 [2] | IC50 [3, 4] | IC50 ([3]; read-out: TLR 9 IC50)
1 | Cc1cc(-c2ccc(CN3CCC(N(C)C)CC3)c(F)c2)cc2c1nc(-c1ccc(S(C)(=O)=O)cc1)n2C [Example 390, 1-(4-(1,4-dimethyl-2-(4-(methylsulfonyl)phenyl)-1H-benzo[d]imidazol-6-yl)-2-fluorobenzyl)-N,N-dimethylpiperidin-4-amine] | 4200 nM | 10200 nM | 91 nM | 91 nM
2 | Cc1cc(-c2cc(F)c(CN3CCC(N4CCCC4)CC3)c(F)c2)cc2c1nc(-c1ccc(S(C)(=O)=O)cc1)n2C [Example 391, 6-(3,5-difluoro-4-((4-(pyrrolidin-1-yl)piperidin-1-yl)methyl)phenyl)-1,4-dimethyl-2-(4-(methylsulfonyl)phenyl)-1H-benzo[d]imidazole] | 2100 nM | 11700 nM | 180 nM | 178 nM
3 | Cc1cc(-c2cc(F)c(CN3CCC(N(C)C)CC3)c(F)c2)cc2c1nc(-c1ccc(S(C)(=O)=O)cc1)n2C [Example 392, 1-(4-(1,4-dimethyl-2-(4-(methylsulfonyl)phenyl)-1H-benzo[d]imidazol-6-yl)-2,6-difluorobenzyl)-N,N-dimethylpiperidin-4-amine] | 10200 nM | 6400 nM | 470 nM | 466 nM
4 | Cc1cc(-c2ccc(CN3CCC(N(C)C4CC4)CC3)cc2)cc2c1nc(-c1ccc(S(C)(=O)=O)cc1)n2C [Example 393, N-cyclopropyl-1-(4-(1,4-dimethyl-2-(4-(methylsulfonyl)phenyl)-1H-benzo[d]imidazol-6-yl)benzyl)-N-methylpiperidin-4-amine] | > 50000 nM | 9500 nM | 330 nM | 334 nM
5 | Cc1cc(-c2ccc(CN3CCC(N(C)C4CC4)CC3)c(F)c2)cc2c1nc(-c1ccc(S(C)(=O)=O)cc1)n2C [Example 394, N-cyclopropyl-1-(4-(1,4-dimethyl-2-(4-(methylsulfonyl)phenyl)-1H-benzo[d]imidazol-6-yl)-2-fluorobenzyl)-N-methylpiperidin-4-amine] | > 50000 nM | 5700 nM | 560 nM | 563 nM
6 | Cc1cc(-c2ccc(CN3CC4(C3)CN(C(C)C)C4)cc2)cc2c1nc(-c1ccc(S(C)(=O)=O)cc1)n2C [Example 399, 6-(4-((6-isopropyl-2,6-diazaspiro[3.3]heptan-2-yl)methyl)phenyl)-1,4-dimethyl-2-(4-(methylsulfonyl)phenyl)-1H-benzo[d]imidazole] | 1000 nM | 2700 nM | 97 nM | 97 nM
7 | Cc1cc(-c2ccc(C3CCN(C4CCN(C)CC4)CC3)cc2)cc2c1nc(-c1ccc(S(C)(=O)=O)cc1)n2C [Example 400, 1,4-dimethyl-6-(4-(1′-methyl-[1,4′-bipiperidin]-4-yl)phenyl)-2-(4-(methylsulfonyl)phenyl)-1H-benzo[d]imidazole] | 1500 nM | 1300 nM | 76 nM | 76 nM
8 | Cc1cc(-c2ccc(C3CCN(C4CCN(C5CC5)CC4)CC3)cc2)cc2c1nc(-c1ccc(S(C)(=O)=O)cc1)n2C [Example 401, 6-(4-(1′-cyclopropyl-[1,4′-bipiperidin]-4-yl)phenyl)-1,4-dimethyl-2-(4-(methylsulfonyl)phenyl)-1H-benzo[d]imidazole] | 2700 nM | 1200 nM | 100 nM | 104 nM
9 | Cc1cc(-c2ccc(CN3CCC(N4CCC4)CC3)cc2)cc2c1nc(-c1ccc(S(C)(=O)=O)cc1)n2C [Example 402, 6-(4-((4-(azetidin-1-yl)piperidin-1-yl)methyl)phenyl)-1,4-dimethyl-2-(4-(methylsulfonyl)phenyl)-1H-benzo[d]imidazole] | 600 nM | 5800 nM | 3.9 nM | 3.9 nM
10 | Cc1cc(-c2ccc(CN3CCC(N4CCC4)CC3)c(F)c2)cc2c1nc(-c1ccc(S(C)(=O)=O)cc1)n2C [Example 403, 6-(4-((4-(azetidin-1-yl)piperidin-1-yl)methyl)-3-fluorophenyl)-1,4-dimethyl-2-(4-(methylsulfonyl)phenyl)-1H-benzo[d]imidazole] | 300 nM | 15800 nM | 81 nM | 94 nM
11 | Cc1cc(-c2ccc(CN3CC4(C3)CN(C(C)C)C4)c(F)c2)cc2c1nc(-c1ccc(S(C)(=O)=O)cc1)n2C [Example 404, 6-(3-fluoro-4-((6-isopropyl-2,6-diazaspiro[3.3]heptan-2-yl)methyl)phenyl)-1,4-dimethyl-2-(4-(methylsulfonyl)phenyl)-1H-benzo[d]imidazole] | 100 nM | 7200 nM | 69 nM | 69 nM
